Source: US9707244B2, “Compositions and methods for treating conditions that affect epidermis” (Gencia Corporation, priority 2013, dated 2017)

Assays:
adult participants = assay: Double-blind, randomized, placebo-controlled study of 0.1% Mitocreatine lotion on the dorsum of the hand; assay type: in vivo, human
Method: This was followed by a double-blind, randomized, placebo-controlled safety and efficacy trial of 0.1% once-daily topical application of mitocreatine to the dorsum of hands. […]. After obtaining informed consent, participants were interviewed by a physician for screening for history of skin disease, allergy and general medical issues. An initial evaluation of skin on the dorsum of the hand was performed. Qualifying participants were issued the test articles and self-assessment forms, and instructed to apply the “Right hand” and “Left hand” vial contents to the dorsum of respective hands once daily, preferably in the evening. Participants were allowed the use of other cosmetics. Once a week the participants filled out the self-assessment forms as instructed during the initial evaluation. The questions in the forms pertained to comparisons of wrinkling, color, pigmented lesions, hydration, roughness and elasticity of skin between right and left hand. One question also elicited the subjective overall impression of skin appearance (better vs. worse) between the hands. […] The participants and the evaluator were blinded to the treated side until after the exit evaluation was finished.
Before the start of study a set of 30 consecutively numbered pairs of bottles containing drug or placebo creams was generated. Of these 30 pairs of bottles 15 pairs treated the right side treated and 15 pairs treated the left side with the drug. The order of right vs. left treatment pairs was random. Participants were assigned a number in the order of recruitment. 17 subjects participated in the study, whereof 15 completed the study. Two subjects dropped out of the study due to non-study related causes. Of the 15 remaining individuals, 9 had their right hand treated whereas 6 had their left hand treated. Data from initial and exit evaluations and self-report forms were tabulated and analyzed using Fisher's exact test and Pearson's chi-squared test. Skin on the dorsum of participants' hands was evaluated by a physician at the initial evaluation and at the conclusion of the study. None of the volunteers had lesions disqualifying from participation (neoplasm, large vascular lesions, wounds, burns, large scars).
The weekly self-report forms included questions about the following adverse outcomes: itching, redness, pain, swelling, blistering, other discoloration, skin cracking and dryness. Participants were also provided with a contact number and instructed to immediately report any of the listed or other worrisome events.

[1] = system: ARPE-19 cells, a retinal pigmented epithelial cell line; assay: DCFDA ROS production in senescent ARPE-19 cells; assay type: cell-based, human; details: forty-eight hours after treatment; increasing concentrations
Method: In the present invention ARPE-19 cells were used to evaluate whether Mitocreatine improves mitochondrial parameters and reduces ROS in a cell model of AMD. The cells were prematurely senescenced according to the protocol of Glotin et al. (2008). ARPE-19 cells, a retinal pigmented epithelial cell line, were prematurely senesced according to the protocol of Glotin et al. (2008). Cells were plated in a 96 well plate for analysis of reactive oxygen species (ROS) production using DCFDA, a fluorogenic dye that is oxidized by hydroxyl, peroxyl and other ROS.

fibroblasts = assay: Oxygen consumption rate (XF24 extracellular flux analyzer) in fibroblasts; assay type: cell-based; details: 5 nM to 500 nM; within thirty minutes of treatment; compared to 10 μM unmodified creatine
Method: In this assay, an XF24 extracellular flux analyzer (Seahorse Bioscience, North Billerica, Mass.) was used to measure mitochondrial oxygen consumption in intact cells. The XF24 analyzer creates a transient 7 μL chamber in specialized microplates that allows determination of oxygen and proton concentrations in real time through the measurement of oxygen sensitive dyes by the XF24 instrument. 24 hours prior to OCR measurement, fibroblasts were seeded into 20 wells of the 24 well tissue culture plate while 1 ml of XF Calibrant solution (Seahorse Bioscience, North Billerica, Mass.) was added to each well of a 24 well dual-analyte sensor cartridge (Seahorse Bioscience, North Billerica, Mass.). The sensor cartridge repositioned on the 24 well calibration plate, and the plate was incubated overnight at 37° C. without additional CO2.
On the day of the experiment, the injection ports on the sensor cartridge were loaded with compound A-1 or creatine as indicated at 10× concentrations and placed into the XF24 Flux Analyzer for automated calibration. […]
The results of the assay for Mitocreatine at 5 nM, 10 nM, 50 nM, and 500 nM concentrations are shown in FIG. 2 as a percent change from the untreated control. For comparison, the results obtained Mitocreatine were compared with the percent increase in oxygen consumption rate measured upon addition of 10 μM creatine.

## CN(CC(=O)NCCC[P+](c1ccccc1)(c1ccccc1)c1ccccc1)C(=N)N.Cl.[Cl-] [Mitocreatine, N^2-[ammonio(imino)methyl]-N^2-methyl-N-[3-(triphenylphosphonio)propyl] glycinamide dichloride]
Adult participants; 0.1% lotion once daily, four weeks
  adverse outcomes reported by participants: No adverse outcomes
Adult participants; 0.1% lotion once daily, final follow-up visit
  pathological changes noted by the evaluating physician: No pathological changes
Adult participants; 13/15, p=0.0074 by binomial test
  participants who correctly identified the treated hand: 87%
Adult participants; drug hand, 7/15, p=0.0033
  participants with improvement in wrinkles: 45%
Adult participants; drug hand, 11/15, p=0.00025
  participants with an improvement in general skin health: 73%
Adult participants; drug hand, 13/15, p=0.0029
  participants with improvement in thickness: 87%
Adult participants; drug hand, 13/15, p=0.019
  participants with improvement in tightness: 87%
Adult participants; drug hand, 14/15, 0.1% lotion, four weeks, p=0.0142
  participants reporting an improvement in at least two measures: 93%
[1]
  ROS production: dose-independent decrease
fibroblasts
  oxygen consumption rate: significant increase in oxygen consumption rate
